Key:
[1] = Inhibition of EGFR in human MDA231 cells assessed as growth inhibition after 24 hrs by MTT assay
[2] = Inhibition of PI3Kalpha in human HCT116 cells coexpressing PI3Kalpha H1047R mutant assessed as growth inhibition after 24 hrs by MTT assay

SMILES	IC50 [1] [µM]	IC50 [2] [µM]
CC(=O)c1cccc(NC(=O)c2cc3ccccc3[nH]2)c1	57	64
CC(=O)c1ccc(NC(=O)c2cc3ccccc3[nH]2)cc1	50	61
O=C(c1ccccc1)c1cccc(NC(=O)c2cc3ccccc3[nH]2)c1	45	55
O=C(c1ccccc1)c1ccc(NC(=O)c2cc3ccccc3[nH]2)cc1	49	54
CC(O)c1cccc(NC(=O)c2cc3ccccc3[nH]2)c1 (stereo unspecified)	34	38
CC(O)c1ccc(NC(=O)c2cc3ccccc3[nH]2)cc1 (stereo unspecified)	35	37

Continued, values first:

IC50 [1] [µM]	IC50 [2] [µM]	SMILES
15	19	O=C(Nc1cccc(C(O)c2ccccc2)c1)c1cc2ccccc2[nH]1 (stereo unspecified)
38	44	O=C(Nc1ccc(C(O)c2ccccc2)cc1)c1cc2ccccc2[nH]1 (stereo unspecified)

From BindingDB's records for doi:10.1016/j.bmcl.2016.04.011 (The University of Jordan, 2016)
